Our source for the IC50 values is patent US7803769B2 (priority 2006, dated 2010).

One experiment has as its target T1, human Kv1.1 (HEK293) (Homo sapiens, UniProt Q09470).
T1 construct: expressed in transfected cells; host or cells: HEK293
The experiment is described as follows: cell-based.

The target of a further experiment is T2, human Kv1.3 (CHO) (Homo sapiens, UniProt P22001).
T2 construct: expressed in transfected cells
Nature of the experiment: cell-based.

The structures appear in SMILES notation. Bridge positions count the residues as written; N and C are the ends. Square brackets hold non-standard residues; d marks the D form. Peptide text beside a SMILES is read from it. 1Nal = N[C@@H](Cc1cccc2ccccc12)C(=O)O

T1 sequence (Q09470 whole entry): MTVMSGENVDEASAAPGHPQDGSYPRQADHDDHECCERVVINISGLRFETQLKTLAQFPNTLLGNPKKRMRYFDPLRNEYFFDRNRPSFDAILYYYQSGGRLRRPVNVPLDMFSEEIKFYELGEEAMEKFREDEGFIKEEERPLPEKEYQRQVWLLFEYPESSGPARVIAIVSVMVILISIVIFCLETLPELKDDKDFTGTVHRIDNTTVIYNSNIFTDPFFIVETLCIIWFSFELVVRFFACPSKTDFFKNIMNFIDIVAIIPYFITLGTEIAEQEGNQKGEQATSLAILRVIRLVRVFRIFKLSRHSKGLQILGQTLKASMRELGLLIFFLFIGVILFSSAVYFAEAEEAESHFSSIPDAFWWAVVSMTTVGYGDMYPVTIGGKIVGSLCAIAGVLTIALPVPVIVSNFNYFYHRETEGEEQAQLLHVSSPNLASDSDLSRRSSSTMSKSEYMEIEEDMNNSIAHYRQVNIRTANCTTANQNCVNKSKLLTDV
T2 sequence (P22001 whole entry): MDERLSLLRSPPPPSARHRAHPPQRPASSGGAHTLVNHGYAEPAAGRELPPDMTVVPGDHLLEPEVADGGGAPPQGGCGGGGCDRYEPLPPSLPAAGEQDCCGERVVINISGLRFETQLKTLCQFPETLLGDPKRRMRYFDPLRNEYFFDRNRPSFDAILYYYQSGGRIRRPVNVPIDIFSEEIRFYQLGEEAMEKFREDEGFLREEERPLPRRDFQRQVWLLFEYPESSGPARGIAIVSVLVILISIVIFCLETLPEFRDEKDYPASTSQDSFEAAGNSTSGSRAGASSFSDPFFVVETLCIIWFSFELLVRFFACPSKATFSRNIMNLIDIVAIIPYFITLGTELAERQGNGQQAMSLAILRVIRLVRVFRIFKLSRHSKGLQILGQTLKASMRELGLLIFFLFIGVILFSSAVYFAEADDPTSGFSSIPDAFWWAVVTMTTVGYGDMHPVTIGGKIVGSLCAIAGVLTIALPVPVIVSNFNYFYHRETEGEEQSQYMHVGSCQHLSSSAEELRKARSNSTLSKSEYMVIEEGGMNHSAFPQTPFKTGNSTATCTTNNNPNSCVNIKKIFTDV

`CC[C@H](C)[C@@H]1NC(=O)[C@H](CCCCN)NC(=O)[C@@H](NC(=O)[C@H](CCCCN)NC(=O)[C@@H](NC(=O)[C@H](CC(N)=O)NC(=O)[C@@H](NC(=O)[C@@H](NC(=O)[C@@H](NC(=O)CN)C(C)C)[C@@H](C)CC)[C@@H](C)CC)C(C)C)CSSC[C@@H]2NC(=O)[C@H](CCCCN)NC(=O)CNC(=O)[C@H](Cc3ccccc3)NC(=O)[C@H](CCCNC(=N)N)NC(=O)[C@H](CCSC)NC(=O)[C@H](Cc3cccc4ccccc34)NC(=O)[C@H](C)NC(=O)[C@H](CCCCN)NC(=O)[C@H](CCCCN)NC(=O)[C@@H]3CSSC[C@@H](C(=O)N[C@H](C(=O)N4CCC[C@H]4C(=O)N[C@@H](CCCCN)C(=O)O)[C@@H](C)O)NC(=O)[C@H](Cc4c[nH]cn4)NC(=O)[C@H](CSSC[C@H](NC(=O)[C@H](CCC(N)=O)NC(=O)[C@H](CCCNC(=N)N)NC(=O)[C@H](CO)NC1=O)C(=O)N[C@@H](CC(C)C)C(=O)N[C@@H](CCC(=O)O)C(=O)N1CCC[C@H]1C(=O)N3)NC(=O)[C@H](CCCCN)NC(=O)CNC(=O)[C@H](CC(N)=O)NC(=O)[C@H](CCSC)NC2=O` [G22Nal] (H-GVIINVKCKISRQCLEPCKKA[1Nal]MRFGKCMNGKCHCTPK-OH; disulfide 8-28, 14-33, 18-35): the IC50 against human Kv1.1 (HEK293) is 0.426 nM; at human Kv1.3 (CHO), more than 3.33 nM.

For `CC[C@H](C)[C@@H]1NC(=O)[C@H](CCCCN)NC(=O)[C@@H](NC(=O)[C@H](CCCCN)NC(=O)[C@@H](NC(=O)[C@H](CC(N)=O)NC(=O)[C@@H](NC(=O)[C@@H](NC(=O)[C@@H](NC(=O)CN)C(C)C)[C@@H](C)CC)[C@@H](C)CC)C(C)C)CSSC[C@@H]2NC(=O)[C@H](CCCCN)NC(=O)[C@H](Cc3cccc4ccccc34)NC(=O)[C@H](Cc3ccccc3)NC(=O)[C@H](CCCNC(=N)N)NC(=O)[C@H](CCSC)NC(=O)CNC(=O)[C@H](C)NC(=O)[C@H](CCCCN)NC(=O)[C@H](CCCCN)NC(=O)[C@@H]3CSSC[C@@H](C(=O)N[C@H](C(=O)N4CCC[C@H]4C(=O)N[C@@H](CCCCN)C(=O)O)[C@@H](C)O)NC(=O)[C@H](Cc4c[nH]cn4)NC(=O)[C@H](CSSC[C@H](NC(=O)[C@H](CCC(N)=O)NC(=O)[C@H](CCCNC(=N)N)NC(=O)[C@H](CO)NC1=O)C(=O)N[C@@H](CC(C)C)C(=O)N[C@@H](CCC(=O)O)C(=O)N1CCC[C@H]1C(=O)N3)NC(=O)[C@H](CCCCN)NC(=O)CNC(=O)[C@H](CC(N)=O)NC(=O)[C@H](CCSC)NC2=O` [G26Nal] (H-GVIINVKCKISRQCLEPCKKAGMRF[1Nal]KCMNGKCHCTPK-OH; disulfide 8-28, 14-33, 18-35), the IC50 on human Kv1.1 (HEK293) was 1.57 nM; against human Kv1.3 (CHO), more than 3.33 nM.

In the case of `CC[C@H](C)[C@@H]1NC(=O)[C@H](CCCCN)NC(=O)[C@@H](NC(=O)[C@H](CCCCN)NC(=O)[C@@H](NC(=O)[C@H](CC(N)=O)NC(=O)[C@@H](NC(=O)[C@@H](NC(=O)[C@@H](NC(=O)CN)C(C)C)[C@@H](C)CC)[C@@H](C)CC)C(C)C)CSSC[C@@H]2NC(=O)[C@H](CCCCN)NC(=O)CNC(=O)[C@H](Cc3ccccc3)NC(=O)[C@H](CCCNC(=N)N)NC(=O)[C@H](CCSC)NC(=O)CNC(=O)[C@H](C)NC(=O)[C@H](CCCCN)NC(=O)[C@H](CCCCN)NC(=O)[C@@H]3CSSC[C@@H](C(=O)N[C@H](C(=O)N4CCC[C@H]4C(=O)N[C@@H](CCCCN)C(=O)O)[C@@H](C)O)NC(=O)[C@H](Cc4c[nH]cn4)NC(=O)[C@H](CSSC[C@H](NC(=O)[C@H](CCC(N)=O)NC(=O)[C@H](CCCNC(=N)N)NC(=O)[C@H](CO)NC1=O)C(=O)N[C@@H](CC(C)C)C(=O)N[C@@H](CCC(=O)O)C(=O)N1CCC[C@H]1C(=O)N3)NC(=O)[C@H](CCCCN)NC(=O)[C@H](Cc1cccc3ccccc13)NC(=O)[C@H](CC(N)=O)NC(=O)[C@H](CCSC)NC2=O` [G31Nal] (H-GVIINVKCKISRQCLEPCKKAGMRFGKCMN[1Nal]KCHCTPK-OH; disulfide 8-28, 14-33, 18-35), the IC50 on human Kv1.1 (HEK293) was less than 0.00152 nM; against human Kv1.3 (CHO), 0.0338 nM.
